Results on 89 compounds are retold here after a melting point compilation (Tetko et al.; mined from patent text by program, amines drawn as free bases though some values may be those of a salt).

For orientation: melting point means the temperature of the solid-liquid transition.

SMILES strings stand for the structures.

In turn, `O=C(Nc1ccc2c(c1)c1ccccc1n2CCO)c1ccccc1Cl` yielded a melting point of 168 to 169 °C.

Regarding `CC1(C)COC(=O)N1c1nc(-c2ccc(Br)cc2)cs1`, the melting point is 165 to 167 °C.

In the case of `COc1cc2ccoc2cc1N1CCN(CC2Cc3ccccc3C2)CC1`, the melting point lay in the range of 188 to 192 °C.

`CC(C)(C)[Si](C)(C)OC1C(=O)N(S(=O)(=O)c2ccc(N3CCCCCC3)cc2)CC1O` (centres undefined) showed a melting point of 121 °C.

Turning to `O=[N+]([O-])c1ccc(C(F)(F)F)c(Nc2nc3ccccc3o2)c1`, the melting point is 150 to 152 °C.

`COc1ccc(-n2c3ccccc3c3cc(C=C(C#N)c4cc(F)cc(F)c4)ccc32)cc1` yielded a melting point of 200 to 203 °C.

`Cn1ncnc1COc1nc2c(cc1-c1ccco1)nnn2-c1ccccc1F` gave a melting point of 170 to 173 °C.

As to `Cn1cncc1C(O)(c1ccc(F)cc1)c1ccc2c(c1)c(-c1cccc(Cl)c1)nc1nnnn12` (centres undefined), the melting point turned out to be 200 °C.

For `CN(C)c1cc2c(cc1Cl)NC(=O)CC(c1cccc(-c3nc(CN4CCOCC4)cs3)c1)=N2`, the melting point lay in the range of 138 to 143 °C.

Consider `CCCCN(Cc1ccc(-c2ccccc2-c2nnn[nH]2)cc1)c1nc(C)ncc1C(=O)OCC`, for which the melting point was in the range of 164 to 166 °C.

The compound `CC(CN1C(=O)c2ccccc2C1=O)OS(C)(=O)=O` (centres undefined) returned a melting point of 111 to 121 °C.

`c1ccc(-n2c3c(c4ccccc42)CCNCC3)cc1`: the melting point lay in the range of 174 to 180 °C.

`O=[N+]([O-])c1ccc2c3c([nH]c2c1)CCCCCC3`: the melting point fell in the range of 119 to 120 °C.

`CCOc1cc(Cn2cc(CCC(=O)O)c(-c3ccccc3)c2)cc(OCc2csc(-c3cccs3)n2)c1` registered a melting point of 104 to 105 °C.

On to `COC(=O)c1ccc(Cc2c[nH]c3ccc(C#N)cc23)c(OC)c1`, for which the melting point is 148 to 149 °C.

In turn, `O=C(c1cc(Cl)cc(Cl)c1)N1CCN(Cc2ccccc2)C[C@H]1Cc1c[nH]c2ccccc12` gave a melting point of 93 to 98 °C.

`CCCCCCCCCC(O)CNCCNCC(O)CCCCCCCCC` (centres undefined) gave a melting point of 130 to 138 °C.

The compound `COC(=O)C1NC(C(=O)OC)C(C(=O)OC)NC1C(=O)OC` (centres undefined) yielded a melting point of 162 to 163 °C.

`CC(C)S(=O)(=O)N1CCC2(CC1)OCCO2` returned a melting point of 66 to 67 °C.

In turn, `CCN(CC)CC1CCCCN1CC(=O)N1c2ccccc2NC(=O)c2csc(C)c21` (centres undefined) had a melting point of 147 to 149 °C.

The compound `C#Cc1cccc(Nc2ncnc3ccc(S(=O)(=O)n4ccc(C=CC(=O)NOC5CCCCO5)c4)cc23)c1` (centres undefined) gave a melting point of 152 to 155 °C.

The compound `O=C(O)C=CC(=O)c1cccc([N+](=O)[O-])c1` gave a melting point of 199 to 201 °C.

In turn, `CC(=Cc1ccccc1)S(=O)(=O)NC(=O)N1CCCCC1` gave a melting point of 159 to 161 °C.

Regarding `Cn1cc(S(=O)(=O)NC(C)(C)C)c(=O)n(C)c1=O`, the melting point was in the range of 143 to 144 °C.

On to `CC(=O)C1CCC2C3CCC4CCCCC4(C)C3CCC12C` (centres undefined), for which the melting point lay within 84 to 90 °C.

For the compound `CCCCc1nc2c(N)nc3ccccc3c2n1CCNC(=O)CCCCC1SCC2NC(=O)NC21` (centres undefined), the melting point fell in the range of 124 to 126 °C.

As for `COc1cccc([C@H]2O[C@H](CC(=O)NCCCOc3ccc(CC(=O)O)cc3)C(=O)N(CC(C)(C)CO)c3ccc(Cl)cc32)c1OC`, the melting point was in the range of 125 to 128 °C.

As to `O=C1NC(=O)C(Cc2ccccc2)C(=O)N1`, the melting point lay within 207 to 209 °C.

On to `Cn1c(C(F)(F)F)cc(=O)n(Nc2cccc(Cl)c2Cl)c1=O`, for which the melting point was found to be 179 °C.

Take `CSc1nc2ccnn2c(OCc2ccccc2)c1C#N`: the melting point was 194 °C.

Compound `COc1ccc2c(c1)CCc1cc(Nc3ccc(F)cc3F)ccc1C2=O` displayed a melting point of 157 °C.

The compound `Cc1c(C(F)(F)C(F)(F)F)ncn1-c1ncc(C(F)(F)F)cc1Cl` had a melting point of 71 °C.

In the case of `COc1ccc2cc3c(Cl)nn(CCN(C)C)c3nc2c1`, the melting point was in the range of 86 to 88 °C.

Regarding `CCOC(=O)c1cnc2c(NC(=O)c3c(Cl)cccc3Cl)cccc2c1CBr`, the melting point was 199 °C.

Turning to `COc1ccc(OC)c(CCC(C)(O)CC2CCCCN2)c1` (centres undefined), the melting point was in the range of 85 to 90 °C.

As to `C=Cc1c(F)c(F)cc2c(=O)c(C(=O)O)cn(C3CC3)c12`, the melting point was in the range of 183 to 188 °C.

`COC1CC2(C)C(CCC3C4CCC(C(C)=O)C4(C)CC(=O)C32)CC1O` (centres undefined) came in with a melting point of 163 to 164 °C.

`CCCC1NC(C(=O)O)Cc2c1[nH]c1ccccc21` (centres undefined) gave a melting point of 210 to 211 °C.

Turning to `COC(=O)c1cnccc1C(=O)c1ccc(-n2ccnc2)cc1`, the melting point was 135 to 137 °C.

Turning to `C=CCN(CC=C)c1nc(NC(=O)CC)n2oc(=O)nc2n1`, the melting point is 157 to 159 °C.

For `CCOC(Cc1ccccc1)=C1SC(=S)N(c2ccccc2)C1=O`, the melting point lay in the range of 119 to 121 °C.

Take `CCCCCCCCCCCCCCCC(=O)NS(=O)(=O)CCCC(=O)O`: the melting point lay within 156 to 157 °C.

Compound `O=CC1=CCC(F)(C2COC(c3c(F)cccc3F)=N2)C=C1` (centres undefined) had a melting point of 105 to 106 °C.

Consider `O=C1CC=C2CCC(=O)N12`, for which the melting point lay in the range of 155 to 156 °C.

As for `O=C(O)c1cccc(-c2ncc(O)cn2)c1`, the melting point is 293 to 295 °C.

In turn, `C#CCC(NC(=O)c1ccc(C)cc1)C(C)=O` (centres undefined) came in with a melting point of 65 to 67 °C.

`C#CC(O)c1ccc(C(=O)OC)s1` (centres undefined) came in with a melting point of 67 °C.

On to `N=C(N)NC(=O)c1cn([C@H](CO)CCc2ccccc2)cn1`, for which the melting point is 111 to 113 °C.

`COc1ccccc1N1CCN(C(=O)[C@H](N)CC2CCCCC2)CC1` returned a melting point of 165 to 168 °C.

`COc1ccc(C2CCc3ccccc3O2)cc1` (centres undefined) gave a melting point of 82 to 83 °C.

For `OCc1cn(-c2cccc(SC(F)(F)F)c2)cn1`, the melting point is 73 to 75 °C.

`CCCCOc1nc(NC(C)=O)nc2ccc(Cl)nc12` registered a melting point of 158 to 159 °C.

`Cc1cc(-c2nnc3c4ccccc4c(OCc4ccn(C)n4)nn23)no1` gave a melting point of 243 to 244 °C.

Compound `CCOCCC(=O)OC1(C(=O)CO)CCC2C3CC(C)C4=CC(=O)C=CC4(C)C3C(O)CC21C` (centres undefined) showed a melting point of 167 °C.

In the case of `Cn1c(C(F)(F)F)cc(=O)n(-c2cc(OCN3C(=O)CCC3=O)c(Cl)cc2F)c1=O`, the melting point lay in the range of 212 to 214 °C.

In turn, `O=C(O)c1cncc(-c2ccc(Cl)c(C(=O)NCC34CC5CC(CC(C5)C3)C4)c2)c1` displayed a melting point of 178 to 182 °C.

`CC1CC(C(=O)Nc2ccccc2)(C(=O)OC(C)(C)C)N(C(=O)CNC(=O)OC(C)(C)C)C1c1ccccc1` (centres undefined) returned a melting point of 182 °C.

The compound `C=CC1C2OCC(O2)C(OCc2ccccc2)C1O` (centres undefined) gave a melting point of 88 to 91 °C.

`CCNC(=O)N1CCCC(n2nnnc2-c2cc(-c3cc(C(C)C)ccc3OC)c(O)cc2O)C1` (centres undefined) returned a melting point of 223 to 226 °C.

`S=C(NCc1cccnc1)NC(=Nc1cccc2ccccc12)c1ccccc1` gave a melting point of 153 to 154 °C.

For `Cc1ncccc1Oc1ccc(N)cn1`, the melting point was 95 to 100 °C.

On to `O=C(OCc1ccccc1)N1CCC(Nc2nc3cccnc3n2Cc2ccc(F)cc2)CC1`, for which the melting point turned out to be 130 °C.

For `COC1CCC(CCNC(=O)n2cc(F)c(=O)[nH]c2=O)CC1OC` (centres undefined), the melting point is 129 °C.

Turning to `O=C(c1ccc(Cl)cc1)c1ccccc1N=C=S`, the melting point lay within 162 to 166 °C.

In the case of `COC(=O)C(C)(C)c1ccc(Cl)c([N+](=O)[O-])c1`, the melting point was in the range of 160 to 161 °C.

`N#Cc1ccc(C(=O)C=Cc2ccccc2)cc1` came in with a melting point of 120 °C.

As for `O=C1CC(c2cccc([N+](=O)[O-])c2)=Nc2ccc(C#Cc3ccccc3)cc2N1`, the melting point was 228 to 229 °C.

`Cc1cc(-c2ccccc2)nc2nc(SCc3ccccc3)nn12` gave a melting point of 154 to 155 °C.

For `CCOC(=O)c1c(O)c2cc(F)ccc2c(=O)n1CC1CC1`, the melting point fell in the range of 61 to 62 °C.

`CS(=O)(=O)NC(=O)c1ccc(OCCn2ccnc2)cc1` yielded a melting point of 198 to 199 °C.

In turn, `COc1cc(C(C)C)c2c(c1)S(=O)(=O)N(COC(=O)c1sccc1Cl)C2=O` came in with a melting point of 138 to 140 °C.

For the compound `CNC(=O)c1cc(-c2ccc(F)cc2)c2c3c(ccc2n1)OCO3`, the melting point was 233 to 235 °C.

As to `CNC(=S)N1CC=C(C(C)(C)C)CC1`, the melting point lay in the range of 76 to 78 °C.

In the case of `COCCOc1c(C(=O)CC(=O)C(=O)O)ccc(Cc2ccccc2)c1OC`, the melting point fell in the range of 83 to 85 °C.

In turn, `Cc1noc(NS(=O)(=O)c2ccc(-c3ccccc3)cc2)c1Br` came in with a melting point of 133 to 135 °C.

`O=C(Nc1ccc(NS(=O)(=O)c2ccc(Cl)c(Cl)c2)cc1)Nc1ccc([N+](=O)[O-])cc1` registered a melting point of 207 to 209 °C.

In turn, `O=C1c2cc(F)ccc2OC[C@H]2CCCN12` came in with a melting point of 80 to 82 °C.

As to `CCOC(=O)N1CCN(Cc2ccc(O)c3ncccc23)CC1`, the melting point was in the range of 92 to 93 °C.

Compound `CCC1=Nc2ccccc2CC(c2ccc(C)s2)N1C` (centres undefined) displayed a melting point of 66 °C.

The compound `Oc1cc(O)n2nc(-c3ccc(F)cc3)c(-c3ccncc3)c2n1` returned a melting point greater than 250 °C.

For the compound `CC1(C)SC(=S)N(c2ccccn2)C1O` (centres undefined), the melting point came out at 80 °C.

With `C=CCC=CCC=CCCCCCCCc1cccc(O)c1`, the melting point turned out to be 60 °C.

In turn, `CCc1c(Oc2cc(C)cc(C)c2)n(COCc2ccccc2)c(=O)[nH]c1=O` had a melting point of 146 to 150 °C.

On to `CCNC(=S)NS(=O)(=O)c1cc(CCNC(=O)c2cc(Cl)ccc2OC)ccc1-c1ccccc1`, for which the melting point lay within 168 to 170 °C.

`CC(=O)N1CCN(CCOC2c3ccccc3C(=O)N2c2ccc3ccc(Cl)nc3n2)CC1` (centres undefined) gave a melting point of 172 °C.

In the case of `Cc1ccc2c(c1)C=Cc1cc(C)ccc1C2c1cn(-c2ncc(C(=O)O)c(NCC(=O)O)n2)c(=O)[nH]c1=O`, the melting point is 271 °C.

In the case of `NS(=O)(=O)c1ccc2nc(C(F)(F)F)[nH]c(=O)c2c1`, the melting point is 311 to 314 °C.

As for `CC(C)(C)Sc1c(CC(C)(C)C(=O)O)n(Cc2ccc(Cl)cc2)c2c(OCc3ccc4ccccc4n3)cccc12`, the melting point stood at 206 °C.

`COc1ccc(OCC(=O)O)c(C(Nc2ccc(C(=N)N)cc2)C(=O)O)c1` (racemic) showed a melting point of 213 °C.
